Test results reported in patent US12065442B2, “Tropomyosin receptor kinase (TRK) degradation compounds and methods of use” (Cullgen (Shanghai), Inc., priority 2018, dated 2024).

Each compound was assayed on KM12 cells (assay: Cell viability assay (CellTiter-Glo) in KM12 cells). Details: Homo sapiens, 72 h; Table 3; KM12 cell viability, CellTiter-Glo, 3 days; read-out: IC50.
Format: cell-based

Structure (SMILES) | IC50
O=C1CCC(N2Cc3cc(NCCN4CCN(c5cccc(-c6cnc7ccc(N8CCC[C@@H]8c8cccc(F)c8)nn67)n5)CC4)ccc3C2=O)C(=O)N1 (stereo partly drawn) [TR-191, 3-(5-((2-(4-(6-(6-((R)-2-(3-fluorophenyl)pyrrolidin-1-yl)imidazo[1,2-b]pyridazin-3-yl)pyridin-2-yl)piperazin-1-yl)ethyl)amino)-1-oxoisoindolin-2-yl)piperidine-2,6-dione] | 5.4 nM
O=C1CCC(N2C(=O)c3ccc(NCCNC4CN(c5cccc(-c6cnc7ccc(N8CCC[C@@H]8c8cccc(F)c8)nn67)n5)C4)cc3C2=O)C(=O)N1 (stereo partly drawn) [TR-192, 2-(2,6-Dioxopiperidin-3-yl)-5-((2-((1-(6-(6-((R)-2-(3-fluorophenyl)pyrrolidin-1-yl)imidazo[1,2-b]pyridazin-3-yl)pyridin-2-yl)azetidin-3-yl)amino)ethyl)amino)isoindoline-1,3-dione] | 103 nM
O=C1CCC(N2C(=O)c3ccc(NCCC4CN(c5cccc(-c6cnc7ccc(N8CCC[C@@H]8c8cccc(F)c8)nn67)n5)C4)cc3C2=O)C(=O)N1 (stereo partly drawn) [TR-193, 2-(2,6-Dioxopiperidin-3-yl)-5-((2-(1-(6-(6-((R)-2-(3-fluorophenyl)pyrrolidin-1-yl)imidazo[1,2-b]pyridazin-3-yl)pyridin-2-yl)azetidin-3-yl)ethyl)amino)isoindoline-1,3-dione] | 1100 nM
O=C1CCC(N2C(=O)c3ccc(CCC(=O)N4CCN(c5cccc(-c6cnc7ccc(N8CCC[C@@H]8c8cccc(F)c8)nn67)n5)CC4)cc3C2=O)C(=O)N1 (stereo partly drawn) [TR-194, 2-(2,6-Dioxopiperidin-3-yl)-5-(3-(4-(6-(6-((R)-2-(3-fluorophenyl)pyrrolidin-1-yl)imidazo[1,2-b]pyridazin-3-yl)pyridin-2-yl)piperazin-1-yl)-3-oxopropyl)isoindoline-1,3-dione] | 7.4 nM
O=C1CCC(N2C(=O)c3ccc(/C=C/C(=O)N4CCN(c5cccc(-c6cnc7ccc(N8CCC[C@@H]8c8cccc(F)c8)nn67)n5)CC4)cc3C2=O)C(=O)N1 (stereo partly drawn) [TR-195, 2-(2,6-Dioxopiperidin-3-yl)-5-((E)-3-(4-(6-(6-((R)-2-(3-fluorophenyl)pyrrolidin-1-yl)imidazo[1,2-b]pyridazin-3-yl)pyridin-2-yl)piperazin-1-yl)-3-oxoprop-1-en-1-yl)isoindoline-1,3-dione] | 23.6 nM
O=C1CCC(N2Cc3ccc(NCCN4CCN(c5cccc(-c6cnc7ccc(N8CCC[C@@H]8c8cccc(F)c8)nn67)n5)CC4)cc3C2=O)C(=O)N1 (stereo partly drawn) [TR-196, 3-(6-((2-(4-(6-(6-((R)-2-(3-fluorophenyl)pyrrolidin-1-yl)imidazo[1,2-b]pyridazin-3-yl)pyridin-2-yl)piperazin-1-yl)ethyl)amino)-1-oxoisoindolin-2-yl)piperidine-2,6-dione] | 3.1 nM
O=C1CCC(N2C(=O)c3ccc(CN4CCN(c5cccc(-c6cnc7ccc(N8CCC[C@@H]8c8cccc(F)c8)nn67)n5)CC4)cc3C2=O)C(=O)N1 (stereo partly drawn) [TR-197, 2-(2,6-Dioxopiperidin-3-yl)-5-((4-(6-(6-((R)-2-(3-fluorophenyl)pyrrolidin-1-yl)imidazo[1,2-b]pyridazin-3-yl)pyridin-2-yl)piperazin-1-yl)methyl)isoindoline-1,3-dione] | 67.1 nM
O=C1CCC(N2C(=O)c3ccc(NCCCOCCN4CCN(c5cccc(-c6cnc7ccc(N8CCC[C@@H]8c8cccc(F)c8)nn67)n5)CC4)cc3C2=O)C(=O)N1 (stereo partly drawn) [TR-199] | 39.8 nM
O=C1CCC(N2Cc3cc(OCCN4CCN(c5cccc(-c6cnc7ccc(N8CCC[C@@H]8c8cccc(F)c8)nn67)n5)CC4)ccc3C2=O)C(=O)N1 (stereo partly drawn) [TR-200, 3-(5-(2-(4-(6-(6-((R)-2-(3-fluorophenyl)pyrrolidin-1-yl)imidazo[1,2-b]pyridazin-3-yl)pyridin-2-yl)piperazin-1-yl)ethoxy)-1-oxoisoindolin-2-yl)piperidine-2,6-dione] | 101 nM
O=C1CCC(N2Cc3ccc(OCCN4CCN(c5cccc(-c6cnc7ccc(N8CCC[C@@H]8c8cccc(F)c8)nn67)n5)CC4)cc3C2=O)C(=O)N1 (stereo partly drawn) [TR-201, 3-(6-(2-(4-(6-(6-((R)-2-(3-fluorophenyl)pyrrolidin-1-yl)imidazo[1,2-b]pyridazin-3-yl)pyridin-2-yl)piperazin-1-yl)ethoxy)-1-oxoisoindolin-2-yl)piperidine-2,6-dione] | > 500 nM
O=C1CCC(N2Cc3ccc(C#CC(=O)N4CCN(c5cccc(-c6cnc7ccc(N8CCC[C@@H]8c8cccc(F)c8)nn67)n5)CC4)cc3C2=O)C(=O)N1 (stereo partly drawn) [TR-202, 3-(6-(3-(4-(6-(6-((R)-2-(3-fluorophenyl)pyrrolidin-1-yl)imidazo[1,2-b]pyridazin-3-yl)pyridin-2-yl)piperazin-1-yl)-3-oxoprop-1-yn-1-yl)-1-oxoisoindolin-2-yl)piperidine-2,6-dione] | 4.3 nM
O=C1CCC(N2Cc3cc(C#CC(=O)N4CCN(c5cccc(-c6cnc7ccc(N8CCC[C@@H]8c8cccc(F)c8)nn67)n5)CC4)ccc3C2=O)C(=O)N1 (stereo partly drawn) [TR-203] | 3.7 nM
O=C1CCC(N2C(=O)c3ccc(CCN4CCN(c5cccc(-c6cnc7ccc(N8CCC[C@@H]8c8cccc(F)c8)nn67)n5)CC4)cc3C2=O)C(=O)N1 (stereo partly drawn) [TR-204, 2-(2,6-dioxopiperidin-3-yl)-5-(2-(4-(6-(6-((R)-2-(3-fluorophenyl)pyrrolidin-1-yl)imidazo[1,2-b]pyridazin-3-yl)pyridin-2-yl)piperazin-1-yl)ethyl)isoindoline-1,3-dione] | 10.6 nM

Same assay, conditions: Homo sapiens, 72 h; Table 4; KM12 cell viability, CellTiter-Glo, 3 days; read-out: IC50

Structure (SMILES) | IC50
O=C1CCC(N2Cc3cc(N4CC(CN5CCN(c6cccc(-c7cnc8ccc(N9CCC[C@@H]9c9cccc(F)c9)nn78)n6)CC5)C4)ccc3C2=O)C(=O)N1 (stereo partly drawn) [TR-205, 3-(5-(3-((4-(6-(6-((R)-2-(3-Fluorophenyl)pyrrolidin-1-yl)imidazo[1,2-b]pyridazin-3-yl)pyridin-2-yl)piperazin-1-yl)methyl)azetidin-1-yl)-1-oxoisoindolin-2-yl)piperidine-2,6-dione] | 122 nM
O=C1CCC(N2Cc3cc(NC4CN(c5cccc(-c6cnc7ccc(N8CCC[C@@H]8c8cccc(F)c8)nn67)n5)C4)ccc3C2=O)C(=O)N1 (stereo partly drawn) [TR-206, 3-(5-((1-(6-(6-((R)-2-(3-Fluorophenyl)pyrrolidin-1-yl)imidazo[1,2-b]pyridazin-3-yl)pyridin-2-yl)azetidin-3-yl)amino)-1-oxoisoindolin-2-yl)piperidine-2,6-dione] | 15.8 nM
O=C1CCC(N2Cc3cc(N4CCN(c5cccc(-c6cnc7ccc(N8CCC[C@@H]8c8cccc(F)c8)nn67)n5)CC4)ccc3C2=O)C(=O)N1 (stereo partly drawn) [TR-207, 3-(5-(4-(6-(6-((R)-2-(3-Fluorophenyl)pyrrolidin-1-yl)imidazo[1,2-b]pyridazin-3-yl)pyridin-2-yl)piperazin-1-yl)-1-oxoisoindolin-2-yl)piperidine-2,6-dione] | 31.3 nM
O=C1CCC(N2Cc3cc(C#CC4CCN(c5cccc(-c6cnc7ccc(N8CCC[C@@H]8c8cccc(F)c8)nn67)n5)CC4)ccc3C2=O)C(=O)N1 (stereo partly drawn) [TR-208, 3-(5-((1-(6-(6-((R)-2-(3-fluorophenyl)pyrrolidin-1-yl)imidazo [1,2-b]pyridazin-3-yl)pyridin-2-yl)piperidin-4-yl)ethynyl)-1-oxoisoindolin-2-yl)piperidine-2,6-dione] | 7 nM
O=C1CCC(N2C(=O)c3ccc(NC(=O)C4CN(c5cccc(-c6cnc7ccc(N8CCC[C@@H]8c8cccc(F)c8)nn67)n5)C4)cc3C2=O)C(=O)N1 (stereo partly drawn) [TR-209, N-(2-(2,6-Dioxopiperidin-3-yl)-1,3-dioxoisoindolin-5-yl)-1-(6-(6-((R)-2-(3-fluorophenyl)pyrrolidin-1-yl)imidazo[1,2-b]pyridazin-3-yl)pyridin-2-yl)azetidine-3-carboxamide] | > 500 nM
